The source of these data is patent US8158792B2, “Spiropiperidines for use as tryptase inhibitors” (Janssen Pharmaceutica N.V., priority 2007, dated 2012).

Molecules are shown by their SMILES.

The target of the experiment is human lung tryptase. Briefly: β-Tryptase In-Vitro Enzyme Assay. In kind it is biochemical. To be noted: human lung tryptase 1 nM, substrate H-D-HHT-Ala-Arg-pNa 500 μM, pH 7.4, room temperature. On the procedure:
The β-tryptase assay was conducted with human lung tryptase (Cortex Biochem #CP3033) in an aqueous buffer (10 mM Tris, 10 mM Hepes, 150 mM NaCl, 0.1% PEG 8000, pH 7.4) using the chromogenic substrate H-D-HHT-Ala-Arg-pNa. […] Percent inhibition was calculated by comparing the initial reaction velocity of samples without inhibitor to those with inhibitor. The initial reaction velocities were analyzed using Microsoft Excel.
As for `NCc1ccc2c(c1)C1(CCN(C(=O)Cc3cccc(Cl)c3)CC1)CO2` [Cpd 81, 1-(3-chloro-benzyl)carbonyl-5′-aminomethyl-spiro[piperidine-4,3′-(2H)-benzo[b]furan]], the IC50 (commonly the concentration that gives 50% inhibition) was determined as 2300 nM.
`NCc1ccc2c(c1)C1(CCN(C(=O)c3ccc(-c4cccc(C(F)(F)F)c4)cc3)CC1)CO2` [Cpd 15, 1-[4-(3-trifluoromethyl-phenyl)-phenyl]carbonyl-5′-aminomethyl-spiro[piperidine-4,3′-(2H)-benzo[b]furan]] came in with an IC50 of 5500 nM.
`NCc1ccc2c(c1)C1(CCN(C(=O)CC3c4ccccc4Oc4ccccc43)CC1)CO2` [Cpd 293, 1-9H-xanthen-9-ylmethylcarbonyl-5′-aminomethyl-spiro[piperidine-4,3′-(2H)-benzo[b]furan]] had a half-maximal inhibitory concentration (IC50) of 1200 nM.
Regarding `COc1cccc(CC(=O)N2CCC3(CC2)COc2ccc(CN)cc23)c1` [Cpd 99, 1-(3-methoxy-benzyl)carbonyl-5′-aminomethyl-spiro[piperidine-4,3′-(2H)-benzo[b]furan]], it took 580 nM to reach half-maximal inhibition (IC50).
For the compound `COc1cccc(OCc2ccc(C(=O)N3CCC4(CC3)COc3ccc(CN)cc34)o2)c1` [Cpd 227, 1-[5-(3-methoxy-phenoxymethyl)-furan-2-yl]carbonyl-5′-aminomethyl-spiro[piperidine-4,3′-(2H)-benzo[b]furan]], the IC50 stood at 44 nM.
As to `COC(=O)c1ccc(C(=O)N2CCC3(CC2)COc2ccc(CN)cc23)cc1` [Cpd 58, 1-(4-methoxycarbonyl-phenyl)carbonyl-5′-aminomethyl-spiro[piperidine-4,3′-(2H)-benzo[b]furan]], the IC50 came out at 710 nM.
The same measure for `NCc1ccc2c(c1)C1(CCN(C(=O)/C=C/c3ccc(F)cc3)CC1)CO2` [Cpd 182, (E)-1-(4-fluoro-phenylethenyl)carbonyl-5′-aminomethyl-spiro[piperidine-4,3′-(2H)-benzo[b]furan]]: 740 nM.
The same measure for `CC(=O)N1CC2(CCN(C(=O)c3ccc(C#Cc4ccccc4)o3)CC2)c2cc(CN)ccc21` [Cpd 339, 1-(5-phenylethynyl-furan-2-yl)carbonyl-1′-methylcarbonyl-5′-aminomethyl-spiro[piperidine-4,3′-(2H)-indole]]: 15 nM.
In turn, `Cc1cccc(/C=C/C(=O)N2CCC3(CC2)COc2ccc(CN)cc23)c1` [Cpd 179, (E)-1-(3-methyl-phenylethenyl)carbonyl-5′-aminomethyl-spiro[piperidine-4,3′-(2H)-benzo[b]furan]] displayed a 50% inhibitory concentration (IC50) of 260 nM.
For `NCc1ccc2c(c1)C1(CCN(C(=O)c3cncc(-c4ccccc4)c3)CC1)CO2` [Cpd 142, 1-(5-phenyl-pyridin-3-yl)carbonyl-5′-aminomethyl-spiro[piperidine-4,3′-(2H)-benzo[b]furan]] the value was 650 nM; for `Cc1cccc(CC(=O)N2CCC3(CC2)COc2ccc(CN)cc23)c1` [Cpd 89, 1-(3-methyl-benzyl)carbonyl-5′-aminomethyl-spiro[piperidine-4,3′-(2H)-benzo[b]furan]], 1400 nM.
As to `CSc1ccc(C(=O)N2CCC3(CC2)COc2ccc(CN)cc23)cc1` [Cpd 45, 1-(4-methylthio-phenyl)carbonyl-5′-aminomethyl-spiro[piperidine-4,3′-(2H)-benzo[b]furan]], 220 nM corresponded to half-maximal inhibition (IC50).
As to `NCc1ccc2c(c1)C1(CCN(C(=O)c3ccc(-c4cc(Cl)ccc4Cl)o3)CC1)CO2` [Cpd 137, 1-[5-(2,5-dichloro-phenyl)-furan-2-yl]carbonyl-5′-aminomethyl-spiro[piperidine-4,3′-(2H)-benzo[b]furan]], the IC50 was 53 nM.
On to `Cc1cccc2c(C(=O)N3CCC4(CC3)COc3ccc(CN)cc34)c[nH]c12` [Cpd 249, 1-(7-methyl-indol-3-yl)carbonyl-5′-aminomethyl-spiro[piperidine-4,3′-(2H)-benzo[b]furan]], for which the half-maximal inhibitory concentration (IC50) came to 830 nM.
The same measure for `NCc1ccc2c(c1)C1(CCN(C(=O)Cc3ccccc3)CC1)CO2` [Cpd 78, 1-benzylcarbonyl-5′-aminomethyl-spiro[piperidine-4,3′-(2H)-benzo[b]furan]]: 1400 nM; for `NCc1ccc2c(c1)C1(CCN(C(=O)/C=C/c3cccc4ccccc34)CC1)CO2` [Cpd 188, (E)-1-(naphthalen-1-ylethenyl)carbonyl-5′-aminomethyl-spiro[piperidine-4,3′-(2H)-benzo[b]furan]]: 130 nM.
`Cc1ccc2c(Cl)c(C(=O)N3CCC4(CC3)COc3ccc(CN)cc34)sc2c1` [Cpd 207, 1-(3-chloro-6-methyl-benzo[b]thien-2-yl)carbonyl-5′-aminomethyl-spiro[piperidine-4,3′-(2H)-benzo[b]furan]] displayed an IC50 of 1500 nM.
`CSc1ccc(C(=O)N2CCC3(CC2)COc2ccc(CN)cc23)s1` [Cpd 247, 1-(5-methylthio-thien-2-yl)carbonyl-5′-aminomethyl-spiro[piperidine-4,3′-(2H)-benzo[b]furan]] showed an IC50 of 36 nM.
As to `O=C(NCc1ccc2c(c1)C1(CCNCC1)CO2)c1ccc(Cl)c(Cl)c1` [Cpd 2, 5′-(3,4-dichlorophenylcarbonylaminomethyl)-spiro[piperidine-4,3′-(2H)-benzo[b]furan]], the IC50 was 1400 nM.
For `Cc1ccc2nc(C(=O)N3CCC4(CC3)COc3ccc(CN)cc34)cn2c1` [Cpd 119, 1-(6-methyl-imidazo[1,2-a]pyridin-2-yl)carbonyl-5′-aminomethyl-spiro[piperidine-4,3′-(2H)-benzo[b]furan]] the value was 1400 nM; for `NCc1ccc2c(c1)C1(CCN(C(=O)c3cc4ccsc4s3)CC1)CO2` [Cpd 233, 1-thieno[2,3-b]thien-2-ylcarbonyl-5′-aminomethyl-spiro[piperidine-4,3′-(2H)-benzo[b]furan]], 82 nM; for `NCc1ccc2c(c1)C1(CCN(C(=O)/C=C/c3ccsc3)CC1)CO2` [Cpd 255, (E)-1-(thien-3-ylethenyl)carbonyl-5′-aminomethyl-spiro[piperidine-4,3′-(2H)-benzo[b]furan]], 580 nM.
The same measure for `NCc1ccc2c(c1)C1(CCN(C(=O)Cc3ccc(Br)cc3)CC1)CO2` [Cpd 93, 1-(4-bromo-benzyl)carbonyl-5′-aminomethyl-spiro[piperidine-4,3′-(2H)-benzo[b]furan]]: 350 nM; for `CN(C)c1ccc(C(=O)N2CCC3(CC2)COc2ccc(CN)cc23)cc1` [Cpd 55, 1-(4-dimethylamino-phenyl)carbonyl-5′-aminomethyl-spiro[piperidine-4,3′-(2H)-benzo[b]furan]]: 1000 nM.
For the compound `NCc1ccc2c(c1)C1(CCN(C(=O)c3ccc(C#Cc4ccccc4)o3)CC1)CN2C(=O)c1nnn[nH]1` [Cpd 334, 1-(5-phenylethynyl-furan-2-yl)carbonyl-1′-(1H-tetrazol-5-yl)carbonyl-5′-aminomethyl-spiro[piperidine-4,3′-(2H)-indole]], the half-inhibitory concentration (IC50) was 47 nM.
`NCc1ccc2c(c1)C1(CCN(C(=O)c3ccc(Br)c([N+](=O)[O-])c3)CC1)CO2` [Cpd 33, 1-(3-nitro-4-bromo-phenyl)carbonyl-5′-aminomethyl-spiro[piperidine-4,3′-(2H)-benzo[b]furan]] returned an IC50 of 430 nM.
In the case of `NCc1ccc2c(c1)C1(CCN(C(=O)c3ccc(C#Cc4ccccc4)o3)CC1)CN2S(=O)(=O)O` [Cpd 327, 1-(5-phenylethynyl-furan-2-yl)carbonyl-1′-hydroxysulfonyl-5′-aminomethyl-spiro[piperidine-4,3′-(2H)-indole]], the IC50 worked out at 18 nM.
For `NCc1ccc2c(c1)C1(CCN(C(=O)c3ccc(Cl)c(Cl)c3)CC1)CS2` [Cpd 353, 1-(3,4-dichlorophenyl)carbonyl-5′-aminomethyl-spiro[piperidine-4,3′-(2H)-benzo[b]thiophene]] the value was 37 nM; for `CCOc1sc(C(=O)N2CCC3(CC2)COc2ccc(CN)cc23)c2c1C(=O)CCC2` [Cpd 261, 1-(3-ethoxy-4-oxo-5,6,7-trihydro-4H-benzo[c]thien-1-yl)carbonyl-5′-aminomethyl-spiro[piperidine-4,3′-(2H)-benzo[b]furan]], 73 nM; for `NCc1ccc2c(c1)C1(CCN(C(=O)c3ccc(S(N)(=O)=O)cc3)CC1)CO2` [Cpd 11, 1-(4-aminosulfonyl-phenyl)carbonyl-5′-aminomethyl-spiro[piperidine-4,3′-(2H)-benzo[b]furan]], 4700 nM.
Compound `NCc1ccc2c(c1)C1(CCN(C(=O)/C=C/c3cccnc3)CC1)CO2` [Cpd 253, (E)-1-(pyridin-3-ylethenyl)carbonyl-5′-aminomethyl-spiro[piperidine-4,3′-(2H)-benzo[b]furan]] showed a half-maximal inhibitory concentration (IC50) of 2400 nM.
Consider `NCc1ccc2c(c1)C1(CCN(C(=O)CCc3cccc(Cl)c3)CC1)CO2` [Cpd 83, 1-(3-chloro-phenethyl)carbonyl-5′-aminomethyl-spiro[piperidine-4,3′-(2H)-benzo[b]furan]], for which it took 4300 nM to reach half-maximal inhibition (IC50).
For `NCc1ccc2c(c1)C1(CCN(C(=O)C3c4ccccc4-c4ccccc43)CC1)CO2` [Cpd 289, 1-fluoren-9-ylcarbonyl-5′-aminomethyl-spiro[piperidine-4,3′-(2H)-benzo[b]furan]] the value was 1400 nM.
`C=CCc1ccc(OCc2ccc(C(=O)N3CCC4(CC3)COc3ccc(CN)cc34)o2)c(OC)c1` [Cpd 224, 1-[5-(2-methoxy-4-allyl-phenoxymethyl)-furan-2-yl]carbonyl-5′-aminomethyl-spiro[piperidine-4,3′-(2H)-benzo[b]furan]] had a 50% inhibitory concentration (IC50) of 280 nM.
The same measure for `NCc1ccc2c(c1)C1(CCN(C(=O)c3sc4ccc5ccccc5c4c3Cl)CC1)CO2` [Cpd 298, 1-(1-chloro-naphtho[2,1-b]thien-2-yl)carbonyl-5′-aminomethyl-spiro[piperidine-4,3′-(2H)-benzo[b]furan]]: 210 nM.
`NCc1ccc2c(c1)C1(CCN(C(=O)/C=C/c3ccccc3O)CC1)CO2` [Cpd 272, (E)-1-(2-hydroxy-phenylethenyl)carbonyl-5′-aminomethyl-spiro[piperidine-4,3′-(2H)-benzo[b]furan]] registered an IC50 of 190 nM.
